Literature values in paper PMC7524040 (Biochemistry, 2020).
Ends that are not written are not given here.

Columns and labels:
[1] = tested on: cardiac heteromeric Kir3.1/3.4 channel; details: heteromeric Kir3.1/Kir3.4 channels

Tertiapin (ALCNCNRIIIPHMCWKKCGKK; not fully specified (C-terminus, bridges); ends and bridges not checked; UniProt P56587 1-21, looked up) [TPN]
IC50 (native IKACh channel): 30 nM | decrease in the inhibitory action after air oxidation of M13 [1]: 4- to 5 fold
